Entries after “also recorded” stand apart in the source; their conditions may differ.
Key:
[1] = test system: Skmel28 metastatic melanoma cells; test: Active caspase 3 staining (apoptosis) of melanoma reconstructs; type: cell-based, human; settings: Skmel28 in dermal reconstructs; wortmannin, BAY 43-9006 or both
Method: (§1) The in vitro reconstruction of metastatic melanoma is based on the organotypic human skin culture technique (14). A cell-free buffered collagen solution was prepared consisting of rat tail collagen type I (BD Biosciences, Bedford, Mass., USA) at a final concentration of 1.35 mg/ml in Dulbecco's modified Eagle's medium with 10% FBS. 1.0 ml of the cell-free collagen solution was added to tissue culture inserts (Millicell PC, Millipore, Bedford, Mass., USA) placed in six-well tissue culture plates. While the acellular collagen layer was solidifying, a second collagen solution was prepared similar to the first with the addition of human fibroblasts and the melanoma cells SKMEL28 or 451 LU. Human fibroblasts and human melanoma cells from subconfluent cultures were trypsinised, washed and resuspended in the second collagen solution at a density of 15×10^5/ml and a fibroblast to melanoma cell ratio of 1:1. 3.0 ml of the fibroblast and melanoma cell-containing collagen solution were placed over the solidified acellular collagen layer. After 5 days of incubation at 37° C., the fibroblast contraction force causes the collagen gel to contract. This structure represents the melanoma reconstruct in a dermal equivalent. […] After 10 to 14 days of submerged culture, the melanoma reconstructs were harvested and evaluated. […]

[2] = test system: MelCAM; test: Flow cytometry of cell surface MelCAM, 451Lu monolayer; type: cell-based, human; settings: 4 μM wortmannin, 6 μM BAY 43-9006, alone or combined, 96 hours
Method: (§2) For blockade of the AKT and MAPK signaling pathways, the PI3K inhibitor wortmannin (Sigma, Steinheim, Germany) and BAY 43-9006 alone or in combination were added directly to the culture medium of the melanoma reconstructs or melanoma cells in monolayer culture at 4 μM and 6 μM, respectively. […] The culture medium was changed every two days. Melanoma reconstructs treated with culture medium or culture medium with the addition of DMSO served as controls. All experiments were done as duplicates and were repeated twice.
(§3) Surface proteins of 1×10^5-1×10^6 451Lu metastatic melanoma cells were stained as follows: Cells were pelleted for 5 min at 1,800 rpm (Heraeus variofuge 3.0R), blocked with 1×PBS/1% BSA, and after centrifugation incubated with antibodies against MeI-CAM (QBiogene-Alexis) or avβ3 integrin (BD Biosciences, Heidelberg) for 15 minutes at room temperature. Cells were washed with 1×PBS/1% BSA and subsequently incubated with anti mouse IgG-FITC (BD Biosciences, Heidelberg) or mouse IgG-isotype control-FITC alone (BD Biosciences, Heidelberg). After washing and pelleting the cells, the cell pellet was resuspended in 1×PBS and measured in a FACScalibur (BD Bioscienses, Heidelberg).
(§4) Furthermore, we examined whether inhibition of these signaling pathways affected expression of the adhesion molecules MelCAM and avβ3 known to play a key role in melanoma cell invasion. […]

[3] = test system: Skmel28 metastatic melanoma cells; test: Invasive melanoma growth in human dermal reconstructs (hematoxylin staining); type: cell-based; settings: 4 μM wortmannin; for invasive melanoma growth (number and size of melanoma cell nests): 6 μM BAY 43-9006, alone or combined
Method: (§5) The in vitro reconstruction of metastatic melanoma is based on the organotypic human skin culture technique (14). A cell-free buffered collagen solution was prepared consisting of rat tail collagen type I (BD Biosciences, Bedford, Mass., USA) at a final concentration of 1.35 mg/ml in Dulbecco's modified Eagle's medium with 10% FBS. 1.0 ml of the cell-free collagen solution was added to tissue culture inserts (Millicell PC, Millipore, Bedford, Mass., USA) placed in six-well tissue culture plates. While the acellular collagen layer was solidifying, a second collagen solution was prepared similar to the first with the addition of human fibroblasts and the melanoma cells SKMEL28 or 451 LU. Human fibroblasts and human melanoma cells from subconfluent cultures were trypsinised, washed and resuspended in the second collagen solution at a density of 15×10^5/ml and a fibroblast to melanoma cell ratio of 1:1. 3.0 ml of the fibroblast and melanoma cell-containing collagen solution were placed over the solidified acellular collagen layer. After 5 days of incubation at 37° C., the fibroblast contraction force causes the collagen gel to contract. This structure represents the melanoma reconstruct in a dermal equivalent. For submerged culture conditions, 3 ml of melanoma cell culture medium supplemented with 10% FBS were added beneath the insert and 2 ml inside the insert to allow proliferation of the seeded cells. The culture medium was changed every two days. After 10 to 14 days of submerged culture, the melanoma reconstructs were harvested and evaluated.
(§6) For blockade of the AKT and MAPK signaling pathways, the PI3K inhibitor wortmannin (Sigma, Steinheim, Germany) and BAY 43-9006 alone or in combination were added directly to the culture medium of the melanoma reconstructs or melanoma cells in monolayer culture at 4 μM and 6 μM, respectively. These concentrations have been described previously to be effective for melanoma cells 6 (16). The culture medium was changed every two days. Melanoma reconstructs treated with culture medium or culture medium with the addition of DMSO served as controls. All experiments were done as duplicates and were repeated twice.
Melanoma reconstructs were fixed with 4% formaldehyde for 8-9 h, dehydrated, and embedded in paraffin. Paraffin sections were stained with hematoxylin for routine light microscopy. […]
Finally, we determined whether the inhibition of the PI3K/AKT signaling pathway and the MAP kinase signaling pathway is able to affect invasive melanoma growth in a physiological context. […]

[4] = test system: 451Lu metastatic melanoma cells; test: Proliferation assay (fluorimetric, 4-methylumbelliferyl heptanoate, MUH), monolayer culture; type: cell-based, human; settings: 451Lu monolayer; wortmannin 2-20 μM, BAY 43-9006 1-7 μM; MUH fluorescence
Method: Cells were seeded as triplicates in 96 well plates at a density of 1,500 cells per well in 150 μl medium (1×10^4 cells per ml). The PI3K inhibitor wortmannin (Sigma, Steinheim, Germany) was directly added to the culture medium at concentrations ranging from 2-20 μM. BAY 43-9006 was added directly to the culture medium at concentrations ranging from 0.5-7 μM. Culture medium, cells treated with culture medium, and cells treated with culture medium with the addition of DMSO served as controls. Assay was started at timepoints indicated. Medium was discarded and each well was washed two times with PBS (without Ca2+ and Mg2+) and 100 μl of a solution containing 100 μg MUH (4-methylumbelliferyl-hepanoat)/ml PBS was added. Plates were incubated at 37° C. for one hour and measured in a Fluoroskan II (Labsystems, Helsinki), with an […]. The intensity of fluorescence indicates the number of vital cells in the wells (18,19).
To analyze the effects of inhibition of either the MAPK or AKT signaling pathways or both together on the proliferation of melanoma cells, we treated the metastatic melanoma cell line 451Lu in monolayer with the PI3K inhibitor wortmannin, BAY 43-9006, or both together. […]
The effect of inhibition of these signaling pathways on cell proliferation was determined by a fluorimetric assay using 4-methylumbelliferyl heptanoate (MUH) (18, 19).

[5] = test system: MelCAM; test: Immunohistochemistry for MelCAM in metastatic melanoma reconstructs; type: cell-based, human; settings: Skmel28 and WM451Lu in dermal reconstructs; 4 μM wortmannin, 6 μM BAY 43-9006, alone or combined
Method: as §1

[6] = test system: Skmel28 metastatic melanoma cells; test: Ki-67 proliferation marker staining of melanoma reconstructs (organotypic culture); type: cell-based, human; settings: Skmel28 in dermal reconstructs; 4 μM wortmannin, 6 μM BAY 43-9006, alone or combined; 2-3 weeks
Method: as §1

[7] = test system: phospho-AKT (Ser473); test: Immunohistochemistry for phosphorylated AKT in melanoma reconstructs; type: cell-based, human; settings: Skmel28 reconstructs; 4 μM wortmannin
Method: as §1

[8] = test system: β3 integrin; test: Immunohistochemistry for β3 integrin in metastatic melanoma reconstructs; type: cell-based, human; settings: Skmel28 and WM451Lu in dermal reconstructs, 4 μM wortmannin, 6 μM BAY 43-9006, alone or combined
Method: as §5
as §6, with “Melanoma reconstructs treated with culture medium or culture medium with the addition of DMSO served as controls. All experiments were done as duplicates and were repeated twice.” left out

[9] = test system: avβ3 integrin; test: Flow cytometry of cell surface avβ3 integrin, 451Lu monolayer; type: cell-based, human; settings: 4 μM wortmannin, 6 μM BAY 43-9006, alone or combined, 96 hours
Method: as §2, §3, §4

[10] = test system: phospho-ERK (phospho-p44/42 MAP kinase, Thr202/Tyr204); test: Immunohistochemistry for phosphorylated ERK in melanoma reconstructs; type: cell-based, human; settings: Skmel28 reconstructs; 6 μM BAY 43-9006
Method: as §1

SMILES | active caspase 3 (ongoing apoptosis) [1] | cell surface expression of MelCAM [2] | cohesion of melanoma cells (melanoma-melanoma cell adhesion) [3] | morphology of melanoma cells [3] | invasive melanoma growth (number and size of melanoma cell nests) [3] | effect on number of proliferating (vital) cells / proliferation rate [4] | expression of MelCAM [5] | cell proliferation (Ki-67 staining) [6] | inhibition of phosphorylation of AKT [7] | expression of β3 integrin [8] | expression of β3 integrin ([8]; listed as Wortmannin) | cell surface expression of avβ3 integrin [9] | inhibition of phosphorylation of ERK (MAP-kinase pathway) [10]
COC[C@H]1OC(=O)c2coc3c2[C@@]1(C)C1=C(C3=O)[C@@H]2CCC(=O)[C@@]2(C)C[C@H]1OC(C)=O [wortmannin] | active caspase 3 was found in the majority of Skmel28 metastatic melanoma cells | downregulates the expression of the adhesion molecules MelCAM; also recorded: down-regulates cell surface expression of MelCAM | decreased | multidendritic morphology; also recorded: multidendritic phenotype | reduced invasive tumor growth; also recorded: number and size of melanoma cell nests were reduced | Little or no effect on the number of proliferating cells; also recorded: no significant effect on the number of proliferating cells | downregulated the expression of MelCAM | little or no effect on proliferation rate | effective in the inhibition of phosphorylation | not altered | not affected | – | –
CNC(=O)c1cc(Oc2ccc(NC(=O)Nc3ccc(Cl)c(C(F)(F)F)c3)cc2)ccn1 [BAY 43-9006, 4{4-[3-(4-chloro-3-trifluoromethylphenyl)-ureido]-phenoxy}-pyridine-2-carboxylic acid methyl amide] | active caspase 3 was found in the majority of Skmel28 metastatic melanoma cells | – | – | – | reduced invasive tumor growth; also recorded: reduced number and size of melanoma cell nests | significantly reduced; also recorded: significant decrease in cell proliferation | not affected; also recorded: did not appear to affect MelCAM expression | significant decrease in cell proliferation | – | significantly reduced; also recorded: substantially reduced β3 integrin expression | – | down-regulates the expression of avβ3 integrin; also recorded: down-regulated | effective in the inhibition of phosphorylation

— patent US20090306020A1, “Combination therapy comprising diaryl ureas for treating diseases” (Bayer Healthcare AG, priority 2005, published 2009)
